Assay [1] deals with Histone-lysine N-methyltransferase EZH2 (Homo sapiens, UniProt Q15910). In words: Wild-Type PRC2 Enzyme Assay.
Procedure: (§1) The assays were performed in a buffer consisting of 20 mM bicine (pH=7.6), 0.5 mM DTT, 0.005% BSG, 100 mM KCl and 0.002% Tween20, prepared on the day of use. […] DMSO (1 μL) was added to columns 11, 12, 23, 24, rows A-H for the maximum signal control, and SAH, a known product and inhibitor of PRC2 (1 μL) was added to columns 11, 12, 23, 24, rows I-P for the minimum signal control. A cocktail (40 μL) containing the wild-type PRC2 enzyme and chicken erythrocyte oligonucleosome was added by Multidrop Combi (Thermo). The compounds were allowed to incubate with PRC2 for 30 min at 25° C., then a cocktail (10 μL) containing a mixture of non-radioactive and 3H-SAM was added to initiate the reaction (final volume=51 μL). […] The assay was stopped by the addition of non-radioactive SAM (10 μL) to a final concentration of 600 μM, which dilutes the 3H-SAM to a level where its incorporation into the chicken erythrocyte olignonucleosome substrate is no longer detectable. […] The plates were then read in a PerkinElmer TopCount platereader to measure the quantity of 3H-labeled chicken erythrocyte oligonucleosome bound to the Flashplate surface, measured as disintegrations per minute (dpm) or alternatively, referred to as counts per minute (cpm).
For assay [2], the target named is Histone-lysine N-methyltransferase EZH2 [Y641F] (Homo sapiens, UniProt Q15910, Y641F). The assay is described as follows: Wild-Type PRC2 Enzyme Assay.
Procedure: as §1

pIC50: −log10 of the molar value.

Sequence of Histone-lysine N-methyltransferase EZH2 (Q15910 whole entry): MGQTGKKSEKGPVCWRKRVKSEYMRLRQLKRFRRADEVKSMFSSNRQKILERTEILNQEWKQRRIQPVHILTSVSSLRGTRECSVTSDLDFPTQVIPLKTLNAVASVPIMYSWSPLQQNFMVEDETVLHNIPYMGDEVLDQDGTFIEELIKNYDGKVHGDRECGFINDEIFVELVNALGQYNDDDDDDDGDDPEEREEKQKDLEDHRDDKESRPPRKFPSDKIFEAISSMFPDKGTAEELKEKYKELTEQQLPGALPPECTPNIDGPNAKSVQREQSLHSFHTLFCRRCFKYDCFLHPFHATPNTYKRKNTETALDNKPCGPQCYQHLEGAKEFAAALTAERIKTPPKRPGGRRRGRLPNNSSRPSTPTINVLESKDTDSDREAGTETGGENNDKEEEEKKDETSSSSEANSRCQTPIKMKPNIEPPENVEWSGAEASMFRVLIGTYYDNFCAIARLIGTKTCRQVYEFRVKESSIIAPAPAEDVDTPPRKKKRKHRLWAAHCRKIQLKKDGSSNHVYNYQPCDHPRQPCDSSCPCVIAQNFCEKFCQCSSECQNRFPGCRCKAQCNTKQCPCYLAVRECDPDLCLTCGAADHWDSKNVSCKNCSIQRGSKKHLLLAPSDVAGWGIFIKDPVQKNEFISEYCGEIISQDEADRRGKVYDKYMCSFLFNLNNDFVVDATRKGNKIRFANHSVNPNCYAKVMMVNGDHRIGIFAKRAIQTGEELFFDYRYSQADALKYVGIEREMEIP
Sequence of Histone-lysine N-methyltransferase EZH2 [Y641F] (Q15910 whole entry Y641F): as the sequence (Q15910 whole entry) above, with Y641F counted along it

Turning to `CCN(c1cc(Cl)cc(C(=O)NCc2c(C)cc3cc[nH]n3c2=O)c1C)[C@H]1CC[C@H](N(C)C)CC1` [US10150764, Compound 2], the results for the pIC50 in assay [1] and in assay [2] were 4.82 and 5.08, respectively.

One may read the pIC50 as the negative decadic logarithm of the IC50, by convention in mol/L. Low readings indicate a high IC50, high ones a low IC50.

(Values after BindingDB's records for patent US10150764 (Epizyme, 2018).)
